Measured values as given in patent US20200023031A1, “COMPOSITION FOR ANTI-PANCREATIC CANCER AND ANTI-PANCREATIC ADJUVANT COMPRISING ALLOFERON” (AT-Pharma Co., Ltd., priority 2018, published 2020).

Tests used:
[1] = tested on: Panc-1 pancreatic ductal adenocarcinoma cell line; assay: Annexin V apoptosis assay, Panc-1; format: cell-based
Method: (§1) AsPC-1 (FIG. 4(a)) and Panc-1 (FIG. 4(b)), two pancreatic ductal adenocarcinoma cell line, were cultured for week in the presence or absence of […] of alloferon, and then 5×10^5 cells were cultured with 250 nM of gemcitabine for 36 hrs. To investigate whether alloferon increases the sensitivity of these cell lines against gemcitabine, the degree of cell death was examined by an Annexin V-7AAD assay. Cells were collected and washed three times with cold phosphate-buffered saline (PBS) and then resuspended in 1× Annexin V binding buffer at a concentration of 1×10^6 cells/ml (BD Biosciences). Transfer 100 μl of the solution (1×10^5 cells) to a 5 ml culture tube. Add 5 μl of FITC-conjugated Annexin V and incubated for 15 min at room temperature in the dark. Add 400 μl of 1× Annexin V binding buffer to each tube. After 1 μl of propidium iodide (PI) was added just prior to analyze by flow cytometry. Apoptotic cells were analyzed with LSRII flow cytometer (BD Biosciences) with excitation at 488 nm and emission at 525 nm.

AsPC-1 cells [2] = assay: AsPC-1 xenograft model in Balb/C (nu/nu) mice; format: in vivo
Method: (§2) The anti-tumor effect of concomitant alloferon and gemcitabine treatment was also assessed by using xenograft animal model.
(§3) Tumor burdens from each experimental animals were excised and compared its volumes (FIG. 8).

AsPC-1 cells [3] = assay: Mitochondrial membrane potential assay, DiOC6(3) staining; format: cell-based; settings: 0.5 mg/ml alloferon for week, 250 nM gemcitabine 36 hours
Method: The effect of adjuvant treatment of alloferon and gemcitabine on mitochondrial function was also studied. AsPC-1 cells were cultured for week in the presence or absence of 0.5 mg/ml of alloferon. Then 5×10^5 cells were cultured with 250 nM of gemcitabine for 36 hours. The synergistic effect of alloferon with gemcitabine on the decrease of mitochondrial membrane potential, a general phenomenon associated with cell death by chemotherapeutic drugs, was investigated by staining with DiOC6(3), a green-fluorescent, lipophilic dye (ThermoFisher Scientific). Cells were collected and washed three times with PBS. Then 1×10^6 cells were resuspended in 1 ml freshly prepared 4% paraformaldehyde diluted from stock using PBS for 10 minutes at room temperature and then washed with 1 ml pre-warmed (37° C.) PBS three times. The DiOC6 stock solution was diluted into PBS to make 0.1 μM working solution. The cells were suspended at a density of 1×10^6 cells/ml in dye working solution and protected from light. The cells were incubated at 37° C. for 15 minutes. The cell suspensions were centrifuged at 130×g for 5 minutes. The supernatant was removed and the cells were gently resuspended in 1 ml pre-warmed PBS. The cells were analyzed with LSRII flow cytometer (BD Biosciences) with excitation at 488 nm and emission at 525 nm.

[4] = tested on: AsPC-1 pancreatic ductal adenocarcinoma cell line; assay: Annexin V apoptosis assay, AsPC-1; format: cell-based
Method: as §1

Panc-1 cells = assay: Panc-1 xenograft model in Balb/C (nu/nu) mice; format: in vivo
Method: as §2, §3

[5] = gemcitabine 250 nM for 36 hrs, alloferon 0.5 μg/ml for a week
[6] = subcutaneous, female Balb/C (nu/nu), calipers every 3-4 days

**Q.** For Nc1ccn([C@@H]2O[C@H](CO)[C@@H](O)C2(F)F)c(=O)n1 [gemcitabine], which “cytotoxic effects, PANC-1” value ([1]; gemcitabine 250 nM) is on record?
**A.** The value was “do not have cytotoxic effects”.

**Q.** And the “apoptosis, Panc-1” value [1, 5]?
**A.** Its value is “do not induce apoptosis”.

**Q.** What about the “tumor growth (tumor volume), AsPC-1 xenograft” value (AsPC-1 cells [2]; [6]) of the same molecule?
**A.** Its value is “does not effectively suppress growth”.

**Q.** And the “excised tumor burden volume, AsPC-1 xenograft” value (AsPC-1 cells [2]; tumor burdens excised, FIG. 8)?
**A.** Its value is “does not effectively suppress growth”.

**Q.** What about the “mitochondrial membrane potential / mitochondrial dysfunction” value (AsPC-1 cells [3]) of the same molecule?
**A.** The value was “does not induce mitochondrial dysfunction”.

**Q.** What about the “cytotoxic effects, ASPC-1” value ([4]; gemcitabine 250 nM) of the same molecule?
**A.** The value was “do not have cytotoxic effects”.

**Q.** And the “apoptosis, AsPC-1” value [4, 5]?
**A.** Its value is “do not induce apoptosis”.

**Q.** And the “tumor growth (tumor volume), Panc-1 xenograft” value (Panc-1 cells; [6])?
**A.** The value was “does not effectively suppress growth”.

**Q.** And the “excised tumor burden volume, Panc-1 xenograft” value (Panc-1 cells; tumor burdens excised, FIG. 8)?
**A.** Its value is “does not effectively suppress growth”.
